Patent US6706663B2, “Herbicidal 3-heterocyclic substituted benzisothiazole and benzisoxazole compounds” (Wyeth, priority 2000, dated 2004)

Tests used:
[1] = tested on: MOOVA (Monochoria vaginalis); assay: Flooded paddy, preemergence weed control; assay type: in vivo, Presl.; conditions: rated 3-4 weeks after treatment, 0-9 rating scale
Summary of the method: (§1)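 In this preemergence paddy assay, weed seeds or organs are sown at up to 0.5 cm in silt loam and covered by 1.5–3 cm of water for the full test period. After treatment the pots are kept in a greenhouse, and herbicidal effect is rated 0-9 visually against a control.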

ORYSAT (Rice, Tebonnet) = assay: Flooded paddy, post-transplant and postemergence rice tolerance; assay type: in vivo, Oryza sativa, (L.) Tebonnet; conditions: post-transplant rice, rated 3-4 weeks after treatment
Summary of the method: (§2)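 Flood water 1.5-3 cm deep throughout; test compound dosed into it as 50/50 v/v aqueous/acetone, ~0.0320-0.2500 kg/ha ai. Plants: weeds 3-5 cm tall, rice seedlings 1.5-2.5 leaf. Read-out 3-4 wk later, visual 0-9 vs control.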

[2] = tested on: TRZAWR (Wheat, Winter, cv Riband); assay: Postemergence herbicidal evaluation; assay type: in vivo, Triticum aestivum
Summary of the method: (§3)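 Seedlings grown about two weeks in flats, sprayed, then kept under standard greenhouse care. Rated visually 4–5 weeks after treatment on a 0–9 scale (stand, vigour, malformation, size, chlorosis, overall appearance) relative to untreated control; repeat tests averaged.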

[3] = tested on: MOOVA (Monochoria vaginalis); assay: Flooded paddy, postemergence weed control; assay type: in vivo, Presl.; conditions: postemergence weeds, rated 3-4 weeks after treatment
Summary of the method: as §2

CYPIR (Cyperus iria) [4] = assay: Flooded paddy, postemergence weed control; assay type: in vivo; conditions: postemergence weeds, rated 3-4 weeks after treatment
Summary of the method: as §2

[5] = tested on: GLXMAW (Soybean, Williams); assay: Preemergence herbicidal evaluation; assay type: in vivo, Glycine max, (L.) Merr. cv Williams; conditions: preemergence, rated 4-5 weeks after treatment
[6] = tested on: ECHORC (Echinochloa oryzoides); assay: Flooded paddy, preemergence weed control; assay type: in vivo, Echinochloa oryzoides (Ard.) Fritsch.; conditions: rated 3-4 weeks after treatment, 0-9 rating scale
Summary of the method: as §1

SETVI (Setaria viridis) [7] = assay: Postemergence herbicidal evaluation; assay type: in vivo, (L.) Beau
Summary of the method: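 Visual injury score (0-9: stand, vigor, malformation, size, chlorosis, overall appearance vs untreated control) taken four to five weeks post-spray. Two-week-old seedlings received about 0.0040 to 1.000 kg/ha active compound in acetone/water with 0.5% TWEEN 20.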

SETVI (Setaria viridis) [8] = assay: Preemergence herbicidal evaluation; assay type: in vivo, (L.) Beau; conditions: preemergence, rated 4-5 weeks after treatment
Summary of the method: (§4)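 Visual 0–9 rating versus control (stand, vigor, malformation, size, chlorosis, overall appearance), scored four to five weeks post-treatment. Preemergence spray of aqueous acetone solution onto freshly seeded soil cups; plants grown under conventional greenhouse care.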

[9] = tested on: ECHCG (Echinochloa crus-galli); assay: Preemergence herbicidal evaluation; assay type: in vivo, (L.) Beau; conditions: preemergence, rated 4-5 weeks after treatment
Summary of the method: as §4

CYPIR (Cyperus iria) [10] = assay: Flooded paddy, preemergence weed control; assay type: in vivo; conditions: rated 3-4 weeks after treatment, 0-9 rating scale
Summary of the method: as §1

[11] = tested on: ECHORC (Echinochloa oryzoides); assay: Flooded paddy, postemergence weed control; assay type: in vivo, Echinochloa oryzoides (Ard.) Fritsch.; conditions: postemergence weeds, rated 3-4 weeks after treatment
Summary of the method: as §2

ZEAMX (Corn, Field) = assay: Preemergence herbicidal evaluation; assay type: in vivo, Zea mays, L.; conditions: preemergence, rated 4-5 weeks after treatment
[12] = tested on: SAGPY (Sagittaria pygmaea); assay: Flooded paddy, postemergence weed control; assay type: in vivo, L.; conditions: postemergence weeds, rated 3-4 weeks after treatment
Summary of the method: as §2

[13] = tested on: IPOHE (Ipomoea hederacea); assay: Postemergence herbicidal evaluation; assay type: in vivo, (L.) Jacq.
Summary of the method: as §3

[14] = tested on: CYPSE (Cyperus serotinus); assay: Flooded paddy, postemergence weed control; assay type: in vivo, Rottb.; conditions: postemergence weeds, rated 3-4 weeks after treatment
Summary of the method: as §2

Cc1cscc1-c1nsc2ccc(-n3c(=O)cc(C(F)(F)F)n(C)c3=O)cc12 [Compound 26, 1-methyl-3-[3-(4-methyl-3-thienyl)-1,2-benzisothiazol-5-yl]-6-(trifluoromethyl)uracil]
herbicidal rating, MOOVA ([1]; rate 0.0080 kg/ha): 9.0
herbicidal rating, MOOVA ([1]; rate 0.0320 kg/ha): 9.0
herbicidal rating, MOOVA ([1]; rate 0.1250 kg/ha): 9.0
herbicide rating (0-9) ORYSAT (rice tolerance) (ORYSAT (Rice, Tebonnet); 0.0320 kg/ha into flood water): 4.0
herbicide rating (0-9) ORYSAT (rice tolerance) (ORYSAT (Rice, Tebonnet); 0.0620 kg/ha into flood water): 5.0
herbicide rating (0-9) ORYSAT (rice tolerance) (ORYSAT (Rice, Tebonnet); 0.1250 kg/ha into flood water): 6.0
Postemergence herbicidal rating, TRZAWR ([2]; rate 0.0320 kg/ha): 3.5
Postemergence herbicidal rating, TRZAWR ([2]; rate 0.0620 kg/ha): 4.5
herbicide rating (0-9) MOOVA ([3]; 0.0320 kg/ha into flood water): 4.0
herbicide rating (0-9) MOOVA ([3]; 0.0620 kg/ha into flood water): 4.0
herbicide rating (0-9) MOOVA ([3]; 0.1250 kg/ha into flood water): 6.0
herbicide rating (0-9) CYPIR (CYPIR (Cyperus iria) [4]; 0.0320 kg/ha into flood water): 9.0
herbicide rating (0-9) CYPIR (CYPIR (Cyperus iria) [4]; 0.0620 kg/ha into flood water): 9.0
herbicide rating (0-9) CYPIR (CYPIR (Cyperus iria) [4]; 0.1250 kg/ha into flood water): 9.0
GLXMAW preemergence herbicidal rating ([5]; Rate 0.0620 kg/ha): 1.0
GLXMAW preemergence herbicidal rating ([5]; Rate 0.1250 kg/ha): 3.0
GLXMAW preemergence herbicidal rating ([5]; Rate 0.2500 kg/ha): 4.5
herbicidal rating, ECHORC ([6]; rate 0.0080 kg/ha): 8.0
herbicidal rating, ECHORC ([6]; rate 0.0320 kg/ha): 9.0
herbicidal rating, ECHORC ([6]; rate 0.1250 kg/ha): 9.0
Postemergence herbicidal rating, SETVI (SETVI (Setaria viridis) [7]; rate 0.0320 kg/ha): 7.0
Postemergence herbicidal rating, SETVI (SETVI (Setaria viridis) [7]; rate 0.0620 kg/ha): 9.0
SETVI preemergence herbicidal rating (SETVI (Setaria viridis) [8]; Rate 0.0620 kg/ha): 9.0
SETVI preemergence herbicidal rating (SETVI (Setaria viridis) [8]; Rate 0.1250 kg/ha): 9.0
SETVI preemergence herbicidal rating (SETVI (Setaria viridis) [8]; Rate 0.2500 kg/ha): 9.0
ECHCG preemergence herbicidal rating ([9]; Rate 0.0620 kg/ha): 6.5
ECHCG preemergence herbicidal rating ([9]; Rate 0.1250 kg/ha): 9.0
ECHCG preemergence herbicidal rating ([9]; Rate 0.2500 kg/ha): 9.0
herbicidal rating, CYPIR (CYPIR (Cyperus iria) [10]; rate 0.0080 kg/ha): 8.5
herbicidal rating, CYPIR (CYPIR (Cyperus iria) [10]; rate 0.0320 kg/ha): 8.3
herbicidal rating, CYPIR (CYPIR (Cyperus iria) [10]; rate 0.1250 kg/ha): 9.0
herbicide rating (0-9) ECHORC ([11]; 0.0320 kg/ha into flood water): 7.0
herbicide rating (0-9) ECHORC ([11]; 0.0620 kg/ha into flood water): 9.0
herbicide rating (0-9) ECHORC ([11]; 0.1250 kg/ha into flood water): 9.0
ZEAMX preemergence herbicidal rating (ZEAMX (Corn, Field); Rate 0.0620 kg/ha): 2.5
ZEAMX preemergence herbicidal rating (ZEAMX (Corn, Field); Rate 0.1250 kg/ha): 3.5
ZEAMX preemergence herbicidal rating (ZEAMX (Corn, Field); Rate 0.2500 kg/ha): 6.5
herbicide rating (0-9) SAGPY ([12]; 0.0320 kg/ha into flood water): 0.0
herbicide rating (0-9) SAGPY ([12]; 0.0620 kg/ha into flood water): 0.0
herbicide rating (0-9) SAGPY ([12]; 0.1250 kg/ha into flood water): 0.0
Postemergence herbicidal rating, IPOHE ([13]; rate 0.0320 kg/ha): 9.0
Postemergence herbicidal rating, IPOHE ([13]; rate 0.0620 kg/ha): 9.0
herbicide rating (0-9) CYPSE ([14]; 0.0320 kg/ha into flood water): 7.0
herbicide rating (0-9) CYPSE ([14]; 0.0620 kg/ha into flood water): 7.0
herbicide rating (0-9) CYPSE ([14]; 0.1250 kg/ha into flood water): 7.0
